Measured values as given in patent US20240415805A1 (priority 2023, published 2024).
“Also recorded” adds a separate entry of the source.

What was measured:
Pg 33277 = experiment: Antibiotic protection assay: invasion of Pg cells into human primary oral keratinocytes; format: cell-based; settings: Porphyromonas gingivalis, 33277, Keratinocyte, read-out: Pg inhibited from entry into HOKs
Experimental: Inhibition of Pg cells invasion by GM. The ability of Pg to invade oral epithelial cells was determined using an antibiotic protection assay as described^28. Human primary oral keratinocytes (HOKs, 5×10^4 cells, ScienCell® Research Laboratories) were seeded in a 24-well plate. After incubating with Pg 33277 for 1 h, HOKs were continually cultured for another 4 h in the presence of antibiotics (gentamicin (300 μg/ml) and metronidazole (200 μg/ml)) to eliminate extracellular bacteria. The HOKs were then lysed, and the internalized bacteria were plated on TSB blood agar plates. The plates were incubated anaerobically at 37° C. for 7 days, and CFUs of Pg were enumerated. […] In the presence of 40 nM GM, more than 95% of Pg were inhibited from entry into HOKs. In addition, the role of GM in Pg re-entry was tested. After exposure to Pg cells for 1 h and then antibiotic treatment for 4 h, HOKs were continuously cultured for 24 h in the presence of GM (20 nM), antibiotics, or GM and antibiotics. Intracellular Pg was determined as described^28. As expected, intracellular Pg cells moved in and out of the HOKs.

HOKs = experiment: HOK cell viability (Promega CellTiter-Glo); format: cell-based, human; settings: 48 h
Experimental: Each bar represents the mean±standard deviation of luminescence levels representing relative the number of viable cells. Data are the mean of at least three independent experiments.
To examine potential cytotoxic effects of GM, HOKs were cultured in the presence of a range of GM from 0 to 1,000 nM for 48 h and the number of viable cells in the culture was determined using Promega™ CellTiter-Glo™.

Pg 33277 vesicles = settings: 30 μM; previously reported; cited from earlier work

In the case of `C=C(C)[C@@]12C[C@@H](COC(=O)c3ccccc3)[C@@]34OC5(O[C@@H]1[C@@H]3[C@@H]1O[C@]1(CO)[C@@H](O)[C@@]1(O)[C@H]4[C@H]([C@H](C)[C@@H]1OC(=O)c1ccccc1)[C@H](C)CCCCCC[C@H]5O)O2` [GM, gnidimacrin], the inhibition at 0.04 µM (Pg 33277) is reported as greater than 95%, the “cell viability of HOKs” value (HOKs; GM 0 to 1,000 nM, as high as luM) is reported as “does not affect host cell viability; also recorded: no impact” and the “highest concentration without viability effect relative to the concentration that inhibits Pg invasion” value (HOKs; HOKs) is reported as “approximately 50 times”.

For `O=C(N/N=C/c1ccc(O)c(O)c1)c1cc2ccccc2cc1O` [dynasore], the Pg vesicle invasion (Pg 33277 vesicles) is given as “inhibited the vesicle invasion”.
